This is an account of results in patent US8552018B2, “Substituted tricyclic compounds as protein kinase inhibitors” (Arizona Board of Regents on behalf of the University of …, priority 2003, dated 2013).

Assay [1] deals with T1, aurora-2 kinase (Homo sapiens, UniProt O14965).
T1 construct: purchased Imgenex, San Diego, Calif; host or cells: sf9 cells
T1 sequence (O14965 1-403): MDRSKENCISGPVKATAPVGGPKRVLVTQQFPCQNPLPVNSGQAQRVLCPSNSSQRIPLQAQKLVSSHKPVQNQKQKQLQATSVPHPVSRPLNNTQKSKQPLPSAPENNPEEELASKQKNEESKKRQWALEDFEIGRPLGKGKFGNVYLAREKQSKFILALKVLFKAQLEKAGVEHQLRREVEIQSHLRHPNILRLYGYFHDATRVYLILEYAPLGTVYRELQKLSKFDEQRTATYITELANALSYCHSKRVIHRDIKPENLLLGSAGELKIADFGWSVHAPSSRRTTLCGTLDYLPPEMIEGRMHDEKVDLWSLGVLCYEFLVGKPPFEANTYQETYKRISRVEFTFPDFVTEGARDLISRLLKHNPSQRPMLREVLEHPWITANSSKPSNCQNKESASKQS
As to the kind of experiment: Aurora-2 kinase inhibition assay (Kinase-Glo). In kind it is biochemical. Particulars: for degree of inhibition of aurora-2 kinase activity (rank among tested compounds): 20 μM, FIG. 10; for IC50: aurora-2 kinase, FIG. 11. How it is done: In this assay kinase activity is determined by quantifying the amount of ATP remaining in solution following the kinase reaction by measuring the light units (LU) produced by luciferase using a luminometer. Percent inhibition was determined for individual compounds by comparing luminometer readings of drug-treated reactions to controls containing no drug (DMSO control) and no Aurora-2 enzyme (ATP control) in the following equation: […]
In a 50 μl reaction, recombinant aurora-2 kinase produced in sf9 cells (Imgenex, San Diego, Calif.) was incubated at 30° C. for two hours with 62.5 μM Kemptide (Calbiochem, San Diego, Calif.), 3 μM ATP (Invitrogen, Carlsbad, Calif.) and kinase reaction buffer (40 mM Tris-HCl, 10 mM MgCl2 and 0.1 μg/μl bovine serum albumin (BSA)). This reaction was carried out in the presence of drug substances, which had been previously diluted to desired concentrations in DMSO. After incubation, 50 μl of Kinase-Glo® (Promega, Inc., Madison, Wis.) solution was added to each reaction mixture and allowed to equilibrate for 10 minutes at room temperature. Kinase-Glo solution contains luciferase enzyme and luciferin, which react with ATP to produce light. Kinase activity is determined by quantifying the amount of ATP remaining in solution following the kinase reaction by measuring the light units (LU) produced by luciferase using a luminometer (PerkinElmer, Boston, Mass.).

Assay [2] relates to MiaPaCa-2 pancreatic cancer cells. As to the kind of experiment: Apoptosis assay (Annexin V or TUNEL). In kind it is cell-based. How it is done:
(§1) Induction of apoptosis in cancer cells is a common mechanism of action for anti-cancer agents. To determine the role of MP470 in apoptosis, tumor cells were incubated with either compound and analyzed for apoptosis using Annexin V or TUNEL assays. […] In MiaPaCa-2 cells, MP470 at […] induced 81.4% apoptosis, while at 1 μM it induced 71% apoptosis. In Panc1 cells, MP470 at 10 μM induced over a 3-fold increase in apoptotic cells compared with non-treated cells.

Assay [3] relates to Panc-1 pancreatic cancer cells. As to the kind of experiment: Apoptosis assay (Annexin V or TUNEL). Particulars: Panc1, 10 μM. In kind it is cell-based. As to the method: as §1
For assay [4], the target named is Flt3(D835Y)(h) (Homo sapiens, UniProt P36888, D835Y). As to the kind of experiment: Kinase profile screen. Type of assay: biochemical. Particulars: 1 uM. As to the method: (§2) In order to determine the specificity and potential alternative targets for MP470, kinase profile screen were performed utilizing the KinaseProfiler™ Screen (Upstate Corp) and Select Screen™ kinase profiling (Invitrogen). Between the two screens, 53 different kinases were tested, representing a broad proportion of the human kinome. MP470 was screened at a concentration of 1 μM against both wildtype and mutant kinases.

Assay [5] concerns the target PDGFRα(D842V)(h) (Homo sapiens, UniProt P16234, D842V). As to the kind of experiment: Kinase profile screen. In kind it is biochemical. Particulars: 1 uM. How it is done:
as §2

Assay [6] concerns the target PDGFRα(V561D)(h) (Homo sapiens, UniProt P16234, V561D). As to the kind of experiment: Kinase profile screen. In kind it is biochemical. Particulars: 1 uM. As to the method: as §2
Assay [7] has as its target cKit(D816V)(h) (Homo sapiens, UniProt P10721, D816V). As to the kind of experiment: Kinase profile screen. The following applies: 1 uM. Type of assay: biochemical. How it is done:
as §2

The target of assay [8] is cKit(V560G)(h) (Homo sapiens, UniProt P10721, V560G). As to the kind of experiment: Kinase profile screen. In kind it is biochemical. Particulars: 1 uM. As to the method: as §2
cKit(V560G)(h), sequence (P10721 26-976 V560G): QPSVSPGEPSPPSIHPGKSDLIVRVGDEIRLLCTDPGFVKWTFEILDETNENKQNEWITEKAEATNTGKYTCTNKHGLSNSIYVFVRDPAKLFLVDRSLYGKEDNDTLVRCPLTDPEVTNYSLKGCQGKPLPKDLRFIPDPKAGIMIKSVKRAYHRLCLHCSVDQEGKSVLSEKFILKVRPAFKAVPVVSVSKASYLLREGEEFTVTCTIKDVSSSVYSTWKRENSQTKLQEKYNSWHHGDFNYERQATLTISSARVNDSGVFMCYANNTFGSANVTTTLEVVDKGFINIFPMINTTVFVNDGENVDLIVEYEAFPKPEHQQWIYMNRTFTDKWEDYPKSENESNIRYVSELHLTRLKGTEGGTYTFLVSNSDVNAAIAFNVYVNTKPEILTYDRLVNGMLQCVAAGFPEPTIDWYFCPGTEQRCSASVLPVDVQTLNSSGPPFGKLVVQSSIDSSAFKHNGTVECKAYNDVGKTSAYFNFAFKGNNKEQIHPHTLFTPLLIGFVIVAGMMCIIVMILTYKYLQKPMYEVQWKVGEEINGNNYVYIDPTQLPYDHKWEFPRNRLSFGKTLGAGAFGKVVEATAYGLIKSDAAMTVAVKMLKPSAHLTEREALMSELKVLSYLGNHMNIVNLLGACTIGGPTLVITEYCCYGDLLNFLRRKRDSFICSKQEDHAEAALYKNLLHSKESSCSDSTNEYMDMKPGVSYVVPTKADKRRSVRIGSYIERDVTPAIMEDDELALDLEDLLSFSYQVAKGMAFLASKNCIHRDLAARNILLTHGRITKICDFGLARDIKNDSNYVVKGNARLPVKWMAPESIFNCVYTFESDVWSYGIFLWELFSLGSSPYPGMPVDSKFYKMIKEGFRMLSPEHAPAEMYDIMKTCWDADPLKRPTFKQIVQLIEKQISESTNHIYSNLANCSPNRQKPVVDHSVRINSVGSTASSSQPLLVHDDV
Assay [9] relates to LNCaP prostate carcinoma cells. As to the kind of experiment: Apoptosis assays (morphology, PARP cleavage immunoblot). Type of assay: cell-based. The following applies: 48 hours. How it is done:
Induction of apoptosis by MP-470 (Compound III-1-3) was further evaluated in LNCaP prostate carcinoma cells using three different assays. First, cells were treated with MP-470 at a variety of concentrations, with or without addition of Tarceva® (erlotinib) for 48 hours. Cells were then examined for the morphological characteristics of apoptosis (membrane blebbing, nuclear fragmentation, etc.) and scored according to a binary scale (apoptotic versus non-apoptotic).
As a more quantifiable means of determining apoptosis induction, cells were also lysed and total protein was used in an immunoblot assay for poly-[ADP ribose] polymerase (PARP) cleavage, a hallmark of apoptosis.

Assay [10] has as its system Akt phosphorylation in NIH 3T3 cells. As to the kind of experiment: Immunoblot for phospho-Akt (S473). Type of assay: cell-based. How it is done: (§3) In order to evaluate these effects at the cellular level, immunoblot analysis was performed on lysates from cells treated with MP470, with or without the addition of the EGFR inhibitor Tarceva®. Lysates were assayed for general tyrosine kinase activity, as well as the specific phosphorylation of c-Met and Akt. Briefly, NIH 3T3 cells were pretreated with drugs as indicated for 4 hours, then treated with pervanadate for a further 30 minutes. Immunoblot detection was carried out with antibodies for phosphotyrosine, phospho-Met and phospho-Akt (S473), as well as total c-Met and Akt. Beta-actin was used as a loading control.
A general note: In western blotting, separated proteins are transferred to a membrane and probed.

Assay [11] deals with general tyrosine phosphorylation in NIH 3T3 cells. As to the kind of experiment: Immunoblot for phosphotyrosine. In kind it is cell-based. How it is done:
as §3, with “MP-470 (Compound III-1-3) has inhibitory effects on a number of receptor tyrosine kinases. In” for “In”

Assay [12] addresses T1, aurora-2 kinase. As to the kind of experiment: Protein kinase inhibitory activity (Example 33, Kinase-Glo). In kind it is biochemical. The following applies: FIG. 27.
Experimental: Percent activity was determined for individual compounds by comparing luminometer readings of drug-treated reactions to controls containing no drug (RLUNo Inhib) and no Aurora-2 enzyme (RLUNo Kinase) in the following equation:
After incubation, 50 μl of Kinase-Glo® (Promega, Inc., Madison, Wis.) solution was added to each reaction mixture and allowed to equilibrate for 10 minutes at room temperature. Kinase-Glo solution contains luciferase enzyme and luciferin, which react with ATP to produce light. Kinase activity is determined by quantifying the amount of ATP remaining in solution following the kinase reaction by measuring the relative light units (RLU) produced by luciferase using a luminometer (Thermo Electron Corporation, Vantaa, Finland).

Molecules are shown by their SMILES. Like-named read-outs stand apart in the source and are kept apart here.

The term IC50 denotes the midpoint of a concentration-inhibition curve. A lower IC50 goes with greater potency in that assay.

PDGFRα(V561D)(h), sequence (P16234 24-1089 V561D): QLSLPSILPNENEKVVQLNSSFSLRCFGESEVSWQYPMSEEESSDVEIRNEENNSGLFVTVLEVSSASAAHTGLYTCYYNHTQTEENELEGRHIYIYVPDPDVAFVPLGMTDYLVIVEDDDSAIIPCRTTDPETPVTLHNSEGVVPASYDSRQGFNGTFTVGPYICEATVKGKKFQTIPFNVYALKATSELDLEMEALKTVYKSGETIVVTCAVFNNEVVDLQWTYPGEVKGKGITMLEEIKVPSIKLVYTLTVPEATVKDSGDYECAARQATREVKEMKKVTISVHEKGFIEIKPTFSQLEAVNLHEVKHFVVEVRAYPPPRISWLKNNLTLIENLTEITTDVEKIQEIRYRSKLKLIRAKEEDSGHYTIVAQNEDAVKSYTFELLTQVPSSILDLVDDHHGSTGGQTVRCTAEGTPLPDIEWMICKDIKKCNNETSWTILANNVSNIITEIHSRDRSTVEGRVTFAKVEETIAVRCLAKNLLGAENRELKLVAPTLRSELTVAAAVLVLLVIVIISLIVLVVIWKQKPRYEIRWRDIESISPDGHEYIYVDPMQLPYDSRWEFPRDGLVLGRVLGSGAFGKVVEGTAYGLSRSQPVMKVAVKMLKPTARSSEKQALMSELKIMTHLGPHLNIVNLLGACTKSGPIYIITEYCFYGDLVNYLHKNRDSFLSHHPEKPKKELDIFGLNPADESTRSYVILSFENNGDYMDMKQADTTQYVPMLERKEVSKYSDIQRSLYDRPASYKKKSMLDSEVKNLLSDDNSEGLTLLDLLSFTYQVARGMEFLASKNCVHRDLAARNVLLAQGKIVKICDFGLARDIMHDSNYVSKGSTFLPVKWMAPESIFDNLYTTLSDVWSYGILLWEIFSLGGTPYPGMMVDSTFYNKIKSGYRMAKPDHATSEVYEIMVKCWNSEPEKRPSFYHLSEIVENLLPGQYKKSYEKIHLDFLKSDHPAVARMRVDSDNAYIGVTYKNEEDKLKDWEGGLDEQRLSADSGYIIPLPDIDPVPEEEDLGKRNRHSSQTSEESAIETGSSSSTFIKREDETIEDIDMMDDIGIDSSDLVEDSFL
cKit(D816V)(h), sequence (P10721 26-976 D816V): as the sequence (P10721 26-976 V560G) above, with G535V, D791V counted along it
PDGFRα(D842V)(h), sequence (P16234 24-1089 D842V): as the sequence (P16234 24-1089 V561D) above, with D538V, D819V counted along it

Regarding `COc1cc2ncnc(N3CCN(C(=S)Nc4ccc(S(=O)(=O)Nc5ncccn5)cc4)CC3)c2cc1OC` [HPK16, 4-(6,7-Dimethoxy-quinazolin-4-yl)-piperazine-1-carbothioic acid [4-(pyrimidin-2-ylsulfamoly)-phenyl]-amide], in assay [1], the “aurora-2 kinase inhibitory activity (in words)” value is “particularly effective inhibitors”, the “degree of inhibition of aurora-2 kinase activity (rank among tested compounds)” value is on record as “second highest inhibition” and the IC50 amounted to 4.7 µM.

Regarding `S=C(NCc1ccc2c(c1)OCO2)N1CCN(c2ncnc3c2oc2ccccc23)CC1` [HPK56, 4-Benzo[4,5]furo[3,2-d]pyrimidin-4-yl-piperazine-1-carbothioic acid (benzo[1,3]dioxol-5-ylmethyl)-amide], the apoptosis in assay [2] (MiaPaCa-2, 1 μM) stood at 71%; in [2] (MiaPaCa-2, 100 μM), 81.4%. Further, the “increase in apoptotic cells compared with non-treated cells” value in [3] is above 3 fold. The “activity against mutant kinase” value in [4], in assay [5], in assay [6], in assay [7] and in assay [8] was “activity” in each case. Further, the apoptosis induction entry was “dose-dependent increase in apoptosis” in assay [9] (MP-470 alone) and “enhanced” in assay [9] (MP-470 in the presence of erlotinib). The “phosphorylation of Akt” value in assay [10] (NIH 3T3, 4 hours, agent alone) is reported as “reduced”; in [10] (NIH 3T3, MP-470 in combination with Tarceva®) it was “reduced”. Moreover, the general tyrosine phosphorylation result in assay [11] is recorded as “reduced”.

For `COc1cc2[nH]c3ncnc(N4CCN(C(=S)Nc5ccc(S(=O)(=O)Nc6ncccn6)cc5)CC4)c3c2cc1OC` [HPK62, 4-(6,7-Dimethoxy-9H-1,3,9-triaza-fluoren-4-yl)-piperazine-1-carbothioic acid [4-(pyrimidin-2-ylsulfamoyl)-phenyl]-amide], in assay [1], the “aurora-2 kinase inhibitory activity (in words)” value is recorded as “particularly effective inhibitors”, the “degree of inhibition of aurora-2 kinase activity (rank among tested compounds)” value is “highest inhibition” and the IC50 turned out to be 0.9 µM. Besides, in [1] (listed as II-2-6), the “aurora-2 kinase inhibitory activity (in words)” value is “low nanomolar”. For the same compound, the “kinase inhibitory activity (in words)” value in assay [12] was “highest activity”.
